# Test results published in patent publication US7910111B2, “Inhibitors of N-ethylmaleimide sensitive factor” (The Johns Hopkins University, priority 2003, dated 2011).
# Tests used:
# [1] = system: human aortic endothelial cells (HAEC); conditions: HAEC pre-treated with increasing amounts; DEA-NONOate 10 min, DETA-NONOate 16 h, SNAP 6 h, NEM 1 h, L-NAME 16 h
# Experimental: To explore the effect of NO upon granule exocytosis, thrombin induced exocytosis of Weibel-Palade bodies from human aortic endothelial cells (HAEC) which release von Willebrand's Factor (vWF) was studied. HAEC was pre-treated with an NO donor 2-(N,N-diethylamino)-diazenolate-2-oxide (DEA-NONOate) 10 mM or with DEA as a control, stimulated the cells with thrombin 1 U/ml for 1 h, and the amount of vWF released into the media was then measured. […] HAEC was then pre-treated with increasing amounts of various NO donors, including a rapidly releasing NO donor DEA-NONOate for 10 min, a slowly releasing NO donor DETA-NONOate for 16 h, or a nitrosothiol S-nitroso-penicillamine (SNAP) for 6 h; alternatively, cells were treated with NEM for 1 h.
# The role of endogenous NO in the regulation of Weibel-Palade body exocytosis was then explored. HAEC was pre-treated with L-NAME for 16 h in order to inhibit endogenous NOS, and then the cells were stimulated with 1 U/ml thrombin for 1 h and vWF release was measured. […] HAEC was next pre-treated with vascular endothelial growth factor (VEGF) in order to activate endogenous NOS3. Cells were incubated with 50 ng/ml VEGF or control for 2 h, and then stimulated with thrombin.
# A peptide inhibitor of NSF that crosses cell membranes was designed. This peptide, designated TAT-NSF222, includes the protein transduction domain of HIV TAT (residues 47-57) previously shown to transduce polypeptides into cells (Becker-Hapak et al., 2001), fused to a fragment of NSF (residues 222-243) previously shown to inhibit NSF (Schweizer et al., 1998). […] HAEC were then incubated for 20 min with TAT-NSF222, or with a control peptide TAT-NSF222scr that consisted of the intact TAT domain followed by the amino acid residues of NSF 222-243 in a scrambled order. HAEC were transduced with TAT-NSF peptides, treated with media or thrombin, and the amount of vWF released into the media was measured by ELISA.
# Since NSF plays a general role in vesicle trafficking, permanent inactivation of NSF would slow vesicular trafficking in general. However, local production of NO at the plasma membrane and reversible nitrosylation of NSF could provide spatial regulation of NSF.
# Human aortic endothelial cells (HAEC) and EGM-2 media were obtained from Clonetics (Walkersville, Md.). HAEC were pre-treated with NO donors, washed, stimulated with 1 U/mil of thrombin, and the amount of vWF released into the media was measured by an ELISA (American Diagnostica, Greenwich, Conn.). HAEC were permeabilized by incubation with 10 U/well of SLO (Sigma) in PBS pH 7.4 for 15 min at 37° C. (Walev et al., 2001). Some cells were incubated with 20-200 μg/ml of antibodies or with 100 μg/ml of recombinant NSF. Cells were then resealed by incubation with EGM-2 media for 4 h at 37° C., washed with EGM-2 media, and stimulated with thrombin as above.
# The ability of TAT-NSF to affect exocytosis from cells was investigated. Endothelial cells release vWF by exocytosis when stimulated by thrombin. Accordingly, endothelial cells were incubated with increasing amounts of TAT-NSF peptides for 20 min, then treated with 1 U/ml thrombin, and the amount of vWF released into the media was measured by ELISA.
# Human aortic endothelial cells (HAEC) and EGM-2 media were obtained from Clonetics (Walkersville, Md.). HAEC were pre-treated with TAT-NSF peptides for 20 min, washed, stimulated with 1 U/ml of thrombin, and the amount of vWF released into the media was measured by an ELISA (American Diagnostica, Greenwich, Conn.).
# [2] = biological target: T1, recombinant NSF (Cricetulus griseus, UniProt P18708); experiment: NSF ATPase assay (coupled colorimetric assay); type: biochemical; conditions: recombinant NSF
# T1 construct: RGS-(His)6 (N); made in house; host or cells: bacteria
# T1 sequence (P18708 whole entry): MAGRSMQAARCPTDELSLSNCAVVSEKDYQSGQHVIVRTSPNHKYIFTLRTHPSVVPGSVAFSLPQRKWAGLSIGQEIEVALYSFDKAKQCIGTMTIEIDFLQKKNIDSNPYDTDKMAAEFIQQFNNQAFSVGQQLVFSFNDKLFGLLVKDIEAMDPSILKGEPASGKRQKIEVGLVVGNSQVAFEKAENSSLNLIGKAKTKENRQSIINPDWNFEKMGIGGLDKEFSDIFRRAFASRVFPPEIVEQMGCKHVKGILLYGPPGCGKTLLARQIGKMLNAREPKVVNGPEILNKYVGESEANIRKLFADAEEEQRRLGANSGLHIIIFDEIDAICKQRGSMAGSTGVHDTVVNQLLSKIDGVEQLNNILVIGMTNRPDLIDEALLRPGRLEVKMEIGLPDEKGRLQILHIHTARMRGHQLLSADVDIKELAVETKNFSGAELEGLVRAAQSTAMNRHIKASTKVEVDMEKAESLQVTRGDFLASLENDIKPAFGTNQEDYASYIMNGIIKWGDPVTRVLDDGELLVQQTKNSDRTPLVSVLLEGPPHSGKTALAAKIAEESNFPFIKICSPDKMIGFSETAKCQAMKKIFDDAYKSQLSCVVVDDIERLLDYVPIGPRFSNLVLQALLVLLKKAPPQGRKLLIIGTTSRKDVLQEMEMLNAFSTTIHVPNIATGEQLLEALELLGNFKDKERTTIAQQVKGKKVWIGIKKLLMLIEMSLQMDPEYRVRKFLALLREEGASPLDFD
# Experimental: The effect of NO upon NSF activity was next explored, since NO inhibits Weibel-Palade body exocytosis, and since NSF regulates Weibel-Palade body exocytosis. The effect of NO upon the ATPase activity of NSF was first examined. DEA-NONOate was added to recombinant NSF, and the ATPase activity of NSF was measured.
# (§1) The ATPase activity of NSF was measured by a coupled assay, in which ATP utilization is linked to the pyruvate kinase reaction, which generates pyruvate, which in turn is measured continuously with lactate dehydrogenase (Huang and Hackney, 1994). Recombinant NSF (0.2 μg/μl) was pre-treated with buffer or DEA or DEA-NONOate or NEM for 10 min at 22° C. ATPase reaction buffer (100 mM HEPES buffer, pH 7.0, 100 mM KCl, 10 mM MgCl2, 5 mM CaCl2, 10 mM ATP, 5 mM phosphoenol pyruvate, 50 U lactate dehydrogenase, and 50 U pyruvate kinase) was added to the mixture, followed by 10 μl of NADH (2 mg/ml in 1% sodium bicarbonate). The mixture was incubated for 10 min at 22° C., and the absorbance was measured at 340 nm.
# The effect of the TAT-NSF peptide inhibitors upon the ability of NSF to hydrolyze ATP was measured. 10 μM TAT-NSF peptides was added to recombinant NSF, and the hydrolysis of ATP was measured. All 5 TAT-NSF peptides inhibited NSF ATPase activity (FIG. 8A). […] The effects of TAT-NSF81 (SEQ ID NO: 6) upon NSF were further defined. TAT-NSF81 (SEQ ID NO: 6) inhibits NSF ATPase activity in a dose-dependent manner with an IC50% between 1-10 μM (FIG. 8B).
# as §1, with “TAT-NSF peptides” for “DEA or DEA-NONOate or NEM”
# [3] = biological target: T2, NSF disassembly of the SNARE complex (Cricetulus griseus, UniProt P18708); type: biochemical; conditions: ATP
# T2 construct: made in house; host or cells: bacteria (NSF, alpha-SNAP); BL21 cells (GST-SNAREs)
# T2 sequence (P18708 whole entry): as above
# T2 sequence (P81125 whole entry partner): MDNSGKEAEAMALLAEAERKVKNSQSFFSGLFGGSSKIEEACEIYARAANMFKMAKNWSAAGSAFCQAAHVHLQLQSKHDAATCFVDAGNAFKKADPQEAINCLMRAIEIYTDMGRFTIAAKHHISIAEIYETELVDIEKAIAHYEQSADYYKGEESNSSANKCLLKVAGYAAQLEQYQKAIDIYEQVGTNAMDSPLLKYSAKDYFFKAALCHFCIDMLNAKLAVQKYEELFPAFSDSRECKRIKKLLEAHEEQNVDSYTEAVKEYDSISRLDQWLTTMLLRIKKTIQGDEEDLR
# T2 sequence (Q12846 whole entry partner): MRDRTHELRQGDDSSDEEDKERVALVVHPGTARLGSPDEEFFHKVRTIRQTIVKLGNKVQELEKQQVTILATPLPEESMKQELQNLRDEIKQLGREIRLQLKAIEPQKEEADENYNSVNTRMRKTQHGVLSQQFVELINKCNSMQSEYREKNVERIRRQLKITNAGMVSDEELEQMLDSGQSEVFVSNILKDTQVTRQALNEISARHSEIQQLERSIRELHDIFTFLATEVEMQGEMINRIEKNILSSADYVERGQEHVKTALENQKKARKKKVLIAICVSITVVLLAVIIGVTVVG
# T2 sequence (Q15836 whole entry partner): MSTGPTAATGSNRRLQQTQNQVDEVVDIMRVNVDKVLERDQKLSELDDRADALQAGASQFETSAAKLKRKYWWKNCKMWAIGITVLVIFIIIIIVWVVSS
# T2 sequence (O00161 whole entry partner): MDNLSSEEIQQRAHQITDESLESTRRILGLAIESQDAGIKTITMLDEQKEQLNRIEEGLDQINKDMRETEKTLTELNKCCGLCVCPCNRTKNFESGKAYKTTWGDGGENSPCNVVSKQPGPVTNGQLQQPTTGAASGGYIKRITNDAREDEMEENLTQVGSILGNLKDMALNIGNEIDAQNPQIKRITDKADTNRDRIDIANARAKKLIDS
# Experimental: Accordingly, recombinant NSF was pre-treated with the NO donor DEA-NONOate 1 mM for 10 min. Pre-treated NSF, α-SNAP, and detergent extracts of HAEC membranes were then mixed in the presence of 0.5 mM ATP or ATP-γS. These reactions were then fractionated by sucrose density gradient ultracentrifugation, fractions were collected from the bottom of the tube, and immunoblotted with antibody to syntaxin-4.
# The effect of NO upon NSF disassembly of purified, recombinant SNARE molecules was next examined. Recombinant (His)6-NSF was pre-treated or not with 1 mM DEA-NONOate for 10 min, and then mixed with and (His)6-a-SNAP and recombinant SNARE fusion polypeptides identified in endothelial cells: GST-syntaxin-4, VAMP-3, and SNAP-23. ATP or ATP-γS was added, the mixture was precipitated with glutathione-sepharose beads, and precipitated proteins were fractionated by SDS-PAGE and immunoblotted with antibody to the NSF tag.
# The disassembly activity of NSF was measured by a co-precipitation assay (Pevsner et al., 1994). […] This mixture of NSF and SNARE polypeptides was then incubated in binding buffer (4 mM HEPES pH 7.4, 0.1M NaCl, 1 mM EDTA, 3.5 mM CaCl2, 3.5 mM MgCl2, and 0.5% Nonidet P-40) and glutathione-sepharose beads for 1 h at 4° C. with rotation. The beads were washed with binding buffer 4 times, mixed with SDS-PAGE sample buffer, boiled for 3 min, and analyzed by immunoblotting.
# The effect of the TAT-NSF peptide inhibitors upon the ability of NSF to separate from SNARE complexes was measured. Recombinant NSF was pre-treated with 1 μM TAT-NSF peptides, and recombinant GST-SNARE polypeptides were then added, including syntaxin-4, SNAP-23, and VAMP-3. […]
# The effect of TAT-NSF peptides on NSF disassembly activity was determined. […]
# TAT-NSF81 (SEQ ID NO: 6) inhibition of NSF disassembly activity was also investigated. […] ATP was added, GST-SNAREs were precipitated with glutathione-sepharose, and the precipitant was analyzed for the co-precipitation of NSF.
# The disassembly activity of NSF was measured by a co-precipitation assay (Pevsner et al., 1994). […]
# [4] = biological target: T1, recombinant NSF; experiment: S-nitrosylation of recombinant NSF (Saville reaction); type: biochemical; conditions: 1 mM DEA-NONOate
# Experimental: The number of cysteine residues that are nitrosylated by exogenous NO was next measured. Recombinant NSF was exposed to increasing amounts of DEA-NONOate, and then the Saville reaction was used to measure the number of nitrosocysteine residues per molecule of NSF. NO nitrosylates NSF in a dose-dependent manner (FIG. 4C). At 1 mM DEA-NONOate, approximately 3 cysteine residues are modified by NO per each molecule of NSF.
# Measurement of cysteine residues nitrosylated in vitro was performed by the Saville and Griess assays (Saura et al., 1999). Measurement of NSF nitrosylated in cultured cells was performed by immunoprecipitation with antibody to nitrosocysteine, followed by immunoblotting with antibody to NSF. Measurement of cysteine residues nitrosylated in vivo was performed as previously (Jaffrey et al., 2001; Jaffrey and Snyder, 2001).
smiles,measurement,setting,value
"CCN(CC)[N+]([O-])=NO [DEA-NONOate, 2-(N,N-diethylamino)-diazenolate-2-oxide]","effect on thrombin induced vWF release, dose response",[1],inhibits thrombin induced vWF release
same,effect on NSF ATPase activity,[2],does not significantly inhibit NSF hydrolysis of ATP
same,effect on NSF disassembly of 20S SNARE complex from endothelial cell extracts,"[3]; NSF pre-treated with 1 mM for 10 min, HAEC membrane extracts",inhibits the ability of NSF to disassemble a 20S SNARE complex
same,effect on NSF disassembly activity,"[3]; recombinant NSF, α-SNAP, GST-SNAREs, TAT-NSF peptides 1 μM in Example 2",inhibits NSF disassembly activity
same,cysteine residues modified by NO per molecule of NSF,[4],approximately 3
